Laboratory results taken from patent publication US5439816A, “Carboxymethylcellulase isolated from bacillus sp. PKM-5430 (FERM BP-4087)” (Kao Corporation, priority 1991, dated 1995).

Key:
[1] = test system: Carboxymethylcellulase 5430; assay: Substrate specificity of Carboxymethylcellulase 5430 (hydrolytic activities, DNS method / p-nitrophenol release); format: biochemical, Bacillus sp. PKM-5430
Procedure: (§1) Activities were determined by the DNS method (J. R. Summer and G. F. Somers, Laboratory Experiments in Biological Chemistry, Academic Press, New York, U.S.A., 1944). Namely, 0.1 ml of a suitably diluted enzyme solution was added to 0.9 ml of a 1.1% (w/v) solution of a CMC (A01MC) substrate in 0.1M glycine-NaOH buffer (pH: 9.0). After a 20-minute reaction at 40° C., 1 ml of 0.05% (w/v) 3,5-dinitrosalicylic acid solution (product of Wako Pure Chemical Industries, Ltd.) was added, and the resulting mixture was immediately placed in a boiling water bath for 5 minutes, followed by cooling in an iced water bath. Then, 4 ml of deionized water was added further, afterwhich, colorimetry was conducted by measuring an absorbance at 535 nm. With respect to enzymatic activity, the amount of enzyme, which liberates reducing sugars corresponding to 1 μmole of glucose for 1 minute, was defined as 1 unit.
(§2) Sodium hydroxide- and phosphoric acid-swollen celluloses were prepared according to the method of Tomita et al. [Y. Tomita, H. Suzuki and K. Nisizawa, J. Biochem., 78, 499(1975)]. The reducing sugar liberated was determined in a similar manner to that of the method (a) except that substrate solutions containing cellulose substrates were used, and the reaction was conducted at 30° C.
(§3) The reducing sugar liberated was determined in a similar manner to that of the method (a) except that substrate solutions containing polysaccharides were used, and the reaction was conducted at 30° C.
(§4) A suitably diluted enzyme solution was added to a solution of 8 mM of a PNPG or PNPC substrate in 0.1M phosphate buffer of pH 7.0 to react them for 20 minutes at 30° C. The p-nitrophenol liberated was determined at 400 nm and the amount formed was calculated.
(§5) The enzyme is also active toward cellobiose, PNPG, PNPC, cellulose powder and phosphoric acid-swollen cellulose.

[2] = test system: Carboxymethylcellulase 5812; assay: Substrate specificity of Carboxymethylcellulase 5812 (hydrolytic activities, DNS method / p-nitrophenol release); format: biochemical, Bacillus sp. PKM-5812
Procedure: as §1, §2, §3, §4, §5

[3] = substrate 8 mM, 0.1M phosphate buffer pH 7.0, 30° C., activity toward CMC taken as 100%
[4] = substrate 0.1%, activity toward CMC at 30° C. taken as 100%

Compound	activity of the enzyme toward substrate [1]	Relative activity (%) [1, 3]	activity of the enzyme toward substrate [2]	Relative activity (%) [2, 3]	Relative activity (%) [1, 4]	Relative activity (%) [2, 4]
O=[N+]([O-])c1ccc(O[C@@H]2O[C@H](CO)[C@@H](O[C@@H]3O[C@H](CO)[C@@H](O)[C@H](O)[C@H]3O)[C@H](O)[C@H]2O)cc1 [PNPC, p-nitrophenyl-β-D-cellobioside]	active	1.0%	active	0.6%		
O=[N+]([O-])c1ccc(O[C@@H]2O[C@H](CO)[C@@H](O)[C@H](O)[C@H]2O)cc1 [PNPG, p-nitrophenyl-β-D-glucopyranoside]	active	0.8%	active	0.2%		
OC[C@H]1O[C@@H](O[C@H]2[C@H](O)[C@@H](O)C(O)O[C@@H]2CO)[C@H](O)[C@@H](O)[C@@H]1O (stereo partly drawn) [Cellobiose]	active		active		0.4%	0.4%
